US10668032B2 (SyneuRx International (Taiwan) Corp., priority 2016, dated 2020)

Legend:
[1] = system: primary cortical neurons; experiment: 3-NP induced toxicity in primary cortical culture (Hoechst staining, MAP-2 immunocytochemistry); type: cell-based, rat
Procedure: Primary cortical cultures were prepared from embryonic day 18 (E18) fetal Sprague Dawley (SD) rat brains. The cells were maintained in Neurobasal medium supplemented with B27 (GIBCO/Life Technologies of Thermo Fisher Scientific Corporation) at 37° C. for 7 days to allow growth of dendrites before experimentation.
3-NP (Cat. No. 73803, Sigma, St. Louis, Mo., USA) was dissolved in phosphate-buffered saline (PBS) as a stock solution of 1 M and adjusted to pH 7.4 with 10 M sodium hydroxide. The 3-NP stock solution was then dispensed into 1-ml aliquots, protected from light, and stored at −20° C. until use.
Hoechst staining is used to assess the extent of the cell survival. Cells were fixed in 4% paraformaldehyde (PFA) in phosphate-buffered saline (PBS), incubated with the Hoechst 33342 diluted in PBS (1:1000) for 5-15 minutes. The Hoechst staining is used to assess the extent of the cell survival after the exposure to 2.5 mM 3-NP for 24 hours.
Cells were fixed in 4% PFA and washed in PBS, blocked with 2% bovine serum albumin (BSA) and treated by 0.03% Triton X-100 in PBS, before being incubated with mouse monoclonal antibody against microtubule-associated protein-2 (MAP-2) in 1:150 dilution (Cat. No. MAB378, CHEMICON International, Inc., Temecula, Calif., USA). The goat anti-mouse IgG Alexa fluor-conjugated secondary antibodies (Cat No. A11003, Thermo Scientific) in 1:500 dilution were applied to recognize the primary antibodies of the MAP-2. For confocal microscopy, the coverslips were observed under a laser-scanning confocal microscope (Zeiss LSM700; Oberkochen, Germany) equipped with filter sets to detect the corresponding fluorescent signals.
The cells were then exposed to 2.5 mM 3-NP for 24 hours.
Quantitative analysis was also performed to assess the extents of cell death. At least three vision fields were randomly selected and the averaged numbers of dead cells and all nuclei per vision field on each coverslip were calculated.

[2] = system: primary cortical cells; experiment: Neurogenesis (BrdU/NeuN co-localization) in primary cortical culture after Aβ25-35; type: cell-based, rat; details: 0.5 mM, 4 days; compared with the other two drugs
Procedure: Primary cortical cultures were prepared from embryonic day 18 (E18) fetal Spragu-Dawley (SD) rat brains. Culture medium was removed from cells and replace with BrdU labeling solution and incubated at 37° C. for 4 days aligned with treatments after Aβ25-35 for 2 days. Cells were fixed in 4% PFA and washed in PBS, blocked with 2% bovine serum albumin (BSA) and 0.03% Triton X-100 in PBS, acid-washed with 2N HCl and phosphate/citric acid buffer (pH 7.4). Next, anti-BrdU primary antibody (1:250, Thermo Scientific) or anti-NeuN primary antibody (1:300, Abcam) were added. The goat anti-rat IgGAlexa Fluor-conjugated secondary antibodies (1:200; Thermo Scientific); anti-mouse IgG Alexa Fluor-conjugated secondary antibodies (1:500; Thermo Scientific) were applied to recognize the primary antibodies of the BrdU and NeuN respectively.
The coverslips were observed under a digital imaging fluorescence microscope (Olympus BX61; Japan) equipped with filter sets to detect the corresponding fluorescence signals.
The second part of mechanism study was focused on neurogenesis. The impairment of neurogenesis in the adult hippocampus has been an important evidence of the pathogenesis of Alzheimer's disease. […]

[3] = system: B6CBA-Tg(HDexon1)62Gpb/3J mice; experiment: Survival of HDexon1 (R6/2) transgenic Huntington's disease mice; type: in vivo, mouse; details: 256 mg/kg/day i.p. from 11 weeks after birth, vs vehicle-treated HDexon1 transgenic mice
Procedure: Animals used in the examples of the present disclosure were housed in an animal room under temperature control (24-25° C.) and 12:12 light-dark cycle. Standard laboratory chow and tap water were available ad libitum. The experiments procedures were approved by the Institutional Animal Care and Use Committee and were performed in compliance with national animal welfare regulations. Transgenic mice B6CBA-Tg(HDexon1)62Gpb/3J were purchased from the Jackson Laboratory (USA).
Drug regimen was initiated 11 weeks after birth, and continued until the end of study. […] The mice of vehicle group received injections of the same volume of saline.
Date and cause of death were recorded for each mouse. Animals were closely monitored and euthanized if moribund, which was defined as the inability of mice to right themselves 30 seconds after being placed on a side, in accordance with the criteria for severe morbidity. The moribund mice were recorded as “dead”, and euthanized using carbon dioxide.

O=C([O-])c1ccccc1.[Li+] [lithium benzoate]
cell survival, drug only ([1]; cortical culture treated only with lithium benzoate, not 3-NP): No difference
cell survival (protection from 3-NP induced neuron death) ([1]; lithium benzoate 1 mM or 3 mM pre-treatment 24 h, then 2.5 mM 3-NP 24 h): significantly protected
MAP-2 immunocytochemistry, confocal microscopy ([1]; lithium benzoate 1 or 3 mM, 3-NP exposure): neuronal protection
neurogenesis (BrdU(+)/NeuN(+) cells) after Aβ25-35 exposure [2]: unsurpassed performance of neurogenesis
proportion of mice surviving over time [3]: improved
